One data set in a line: Stability Protocol. As to conditions: pH 7.4 sodium phosphate buffer, preliminary shelf life (T90) estimated from stressed samples. The class given is physicochemical. The protocol: About 3 mg of a compound was dissolved in 3 mL of acetonitrile/water mixture (50/50). 100 μL of the stock solution was added to 20 mL each of 0.025 M pH 5.0 sodium acetate buffer (A5.0), 0.025 M pH 5.0 citrate buffer (C5.0) and 0.025 M pH 7.4 sodium phosphate buffer (P7.4). A two mL aliquot of each solution was kept in a glass vial equipped a cap lined with Teflon. Two vials containing the solution were stored at 4° C. or −20° C. as control. Other aliquots were stressed at RT, 45° C. or 75° C. for specified time check points, e.g. 1 day, 1 w, 2 w, 4 w, 8 w,12 w. The stressed samples in duplicate were assayed against the control using HPLC. The results were reported in % degradation. Preliminary shelf life (T90) was estimated assuming the rate of chemical degradation is double when the temperature is up 10° C.

In another data set the test system is Rabbits. Nature of the data set: Lacrimal Gland Inflammation-Induced Dry Eye in Rabbits (corneal staining, tear breakup time). The class given is in vivo. The conditions noted are these: topical ocular BID, rabbit ConA dry eye. An excerpt:
A more detailed description of the assay used herein may be found in Naglehout, T J et al. 2005, “Preservation of Tear Film Integrity and Inhibition of Corneal Injury by Dexamethasone in a Rabbit Model of Lacrimal Gland Inflammation-Induced Dry Eye,” J. Ocular Pharm. Ther., 21:2. 139-148, the disclosure of which is hereby incorporated by reference as if written herein in its entirety.
Rabbits (n=4/group) were randomized into treatment groups and dosed topically BID with maxidex vehicle or test drug beginning one day prior to initiation of dry eye. Each rabbit received bilateral lacrimal gland injections of saline or ConA (300 μg/30 μl) and topical ocular dosing was continued BID throughout the study.
Desiccation was initiated 1-2 hours following lacrimal gland injection by placing conscious rabbits in the environmental chamber (10-15% humidity/72° F.). Following 72 consecutive hours of exposure to this dry environment, the animals were anesthetized and sutures were placed in each upper and lower eyelid and lifted to form a corneal/conjunctival cup. Methylene blue dye (1 mL, 1% in dH2O) was added to the cup for three minutes and the excess removed by washing with 200 mL BSS®. The contralateral eye was then stained using the same procedure. Rabbits were euthanized immediately following the staining procedure and the eyes were excised. The corneas were isolated with a trephine and the 9.5-mm punch of the cornea was placed in 2 mL acetone/saturated sodium sulfate (7:3, vol./vol.). Absorbance of the extracted dye was determined at 660 nm.
TBUT was quantified in a separate group of treated animals. TBUT was determined by instilling 5 μL sodium fluorescein into the cul de sac and manually blinking the lids to distribute the fluorescein within the tear film. Under slit lamp observation, the eye was held open and the time whereby one or more black spots or streaks appeared in the precorneal tear film was recorded. The rabbits were euthanized 3 days following ConA injection.

The next data set in a line: Solubility Protocol. The conditions noted are these: aqueous buffer, thermodynamic from solid; pH 7.4, 0.1 M sodium phosphate buffer. The class given is physicochemical. The protocol: About 5 mg of a compound was mixed with 500 μL of pH 7.4, 0.1 M sodium phosphate buffer. The mixture was adjusted to the original pH of 7.4 and then mixed overnight or longer via rotary mixing. The sample was checked for pH and then filtered through a 0.45 μm filter. If the pH drifted away, the sample was adjusted to its original pH and mixed for at least 15 minutes before filtration. The filtrate was analyzed using HPLC.

In a further data set the target is T1, PDE4B (Homo sapiens, UniProt Q07343).
T1 construct: hex-histidine (His6) (N); made in house
T1 sequence (Q07343 330-659 limits assumed, species assumed): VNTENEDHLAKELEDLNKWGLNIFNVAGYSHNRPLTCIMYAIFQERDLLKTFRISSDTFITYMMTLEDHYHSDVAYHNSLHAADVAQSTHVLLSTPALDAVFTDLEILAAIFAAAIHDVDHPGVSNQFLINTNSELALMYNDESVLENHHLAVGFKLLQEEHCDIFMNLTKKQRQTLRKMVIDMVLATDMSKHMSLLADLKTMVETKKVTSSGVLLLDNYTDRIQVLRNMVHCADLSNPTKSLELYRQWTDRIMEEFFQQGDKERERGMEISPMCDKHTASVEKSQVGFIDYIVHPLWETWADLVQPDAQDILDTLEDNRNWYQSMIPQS
Nature of the data set: PDE/AK Biological Activity Assay (coupled PDE/adenylate kinase bioluminescent assay). The conditions noted are these: catalytic domain of PDE4B, read-out: PDE4 Enzyme IC50. The class given is biochemical.

On to `COc1ccc2c(Nc3c(C)cncc3C)cc(=O)[nH]c2c1OCC1CC1` [Example 8, 8-(Cyclopropylmethoxy)-4-(3,5-dimethylpyridin-4-ylamino)-7-methoxyquinolin-2(1H)-one], for which the “Stability, pH 7.4” value in the data set “Stability Protocol” is given as “+ (+ indicates ≧1 Year)”. Also, the “Activity at Percent Concentration Tested” value with Rabbits (1 × 10^−2 percent), in the data set with Rabbits (1 × 10^−4 percent) and with Rabbits (1 × 10^−6 percent) was “Inactive” throughout.

As usually defined, the solubility is the dissolved amount per volume that the medium holds. The low end stands for a poorly soluble substance, the high end for a readily soluble substance. `COc1ccc2c(Nc3c(Cl)cncc3Cl)cc(=O)[nH]c2c1OC1CCCC1` [Example 1, 8-(Cyclopentyloxy)-4-(3,5-dichloropyridin-4-ylamino)-7-methoxyquinolin-2(1H)-one]: the “Stability, pH 7.4” value in the data set “Stability Protocol” is “+ (+ indicates ≧1 Year)”. For the same compound, the solubility in “Solubility Protocol” is at least 1 mg/mL. The “Activity at Percent Concentration Tested” value in the data set on Rabbits (1 percent), with Rabbits (1 × 10^−1 percent) and in the data set on Rabbits (1 × 10^−2 percent) was “Inactive” throughout.

One may read the IC50 as the concentration at which inhibition is half-maximal. On to `COc1ccc2c(Nc3c(Cl)cncc3Cl)cc(=O)[nH]c2c1OCCCCCCC(=O)O` [Example 53, 7-(4-(3,5-dichloropyridin-4-ylamino)-7-methoxy-2-oxo-1,2-dihydroquinolin-8-yloxy)heptanoic acid], for which the IC50 at PDE4B is below 1 µM. In addition, the “Stability, pH 7.4” value in “Stability Protocol” is listed as “+ (+ indicates ≧1 Year)”. In addition, the solubility in the data set “Solubility Protocol” was at least 1 mg/mL.

As for `COc1ccc2c(Nc3c(Cl)cncc3Cl)cc(=O)[nH]c2c1OCCCCCCCC(=O)O` [Example 54, 8-(4-(3,5-dichloropyridin-4-ylamino)-7-methoxy-2-oxo-1,2-dihydroquinolin-8-yloxy)octanoic acid], at PDE4B, the IC50 is below 1 µM. The “Stability, pH 7.4” value in the data set “Stability Protocol” is “+ (+ indicates ≧1 Year)”. For the same compound, in the data set “Solubility Protocol”, the solubility is at least 1 mg/mL.

On to `COc1ccc2c(Nc3c(Cl)cncc3Cl)cc(=O)[nH]c2c1OCCCCCC(N)=O` [Example 58, 6-(4-(3,5-dichloropyridin-4-ylamino)-7-methoxy-2-oxo-1,2-dihydroquinolin-8-yloxy)hexanamide], for which, on PDE4B, the IC50 was below 1 µM. In the data set “Stability Protocol”, the “Stability, pH 7.4” value was “+ (+ indicates ≧1 Year)”. The compound further had a solubility in the data set “Solubility Protocol” of at least 1 mg/mL.

Regarding `COc1ccc2c(Nc3c(Cl)cncc3Cl)cc(=O)[nH]c2c1OCCCCC(=O)O` [Example 52, 5-(4-(3,5-dichloropyridin-4-ylamino)-7-methoxy-2-oxo-1,2-dihydroquinolin-8-yloxy)pentanoic acid], on PDE4B, the IC50 was below 1 µM. For the same compound, the “Stability, pH 7.4” value in the data set “Stability Protocol” is recorded as “+ (+ indicates ≧1 Year)”. For the same compound, the solubility in “Solubility Protocol” is at least 1 mg/mL.

On to `COc1ccc2c(Nc3c(Cl)cncc3Cl)cc(=O)[nH]c2c1OCCCCCCN1CCNCC1` [Example 22, 4-(3,5-Dichloropyridin-4-ylamino)-7-methoxy-8-(6-(piperazin-1-yl)hexyloxy)quinolin-2(1H)-one], for which the half-inhibitory concentration (IC50) on PDE4B is below 1 µM. The “Stability, pH 7.4” value in “Stability Protocol” is on record as “+ (+ indicates ≧1 Year)”. In the data set “Solubility Protocol”, the solubility was at least 1 mg/mL.

For `COc1ccc2c(Nc3c(Cl)cncc3Cl)cc(=O)[nH]c2c1OCCCC(N)=O` [Example 56, 4-(4-(3,5-dichloropyridin-4-ylamino)-7-methoxy-2-oxo-1,2-dihydroquinolin-8-yloxy)butanamide], the IC50 at PDE4B is below 1 µM. For the same compound, in “Stability Protocol”, the “Stability, pH 7.4” value was “+ (+ indicates ≧1 Year)”. The solubility in the data set “Solubility Protocol” was at least 1 mg/mL.

On to `COc1ccc2c(Nc3c(C)cncc3C)cc(=O)[nH]c2c1OCCCCCCN(C)C` [Example 38, 8-(6-(Dimethylamino)hexyloxy)-4-(3,5-dimethylpyridin-4-ylamino)-7-methoxyquinolin-2(1H)-one], for which, on PDE4B, the half-maximal inhibitory concentration (IC50) is below 1 µM. Moreover, in the data set “Stability Protocol”, the “Stability, pH 7.4” value was “+ (+ indicates ≧1 Year)”. In the data set “Solubility Protocol”, this compound had a solubility of at least 1 mg/mL.

Consider `COc1ccc2c(Nc3c(C)cncc3C)cc(=O)[nH]c2c1OC1CCCC1` [Example 5, 8-(Cyclopentyloxy)-4-(3,5-dimethylpyridin-4-ylamino)-7-methoxyquinolin-2(1H)-one], for which the “Stability, pH 7.4” value in “Stability Protocol” was “+ (+ indicates ≧1 Year)”. In addition, the solubility in the data set “Solubility Protocol” is at least 1 mg/mL. In addition, the “Activity at Percent Concentration Tested” value in the data set with Rabbits (1 × 10^−2 percent), in the data set with Rabbits (1 × 10^−4 percent) and in the data set with Rabbits (1 × 10^−6 percent) was “Inactive” in each case.

For `COc1ccc2c(Nc3c(Cl)cncc3Cl)cc(=O)[nH]c2c1OCCCCCCCN1CCN(C)CC1` [Example 20, 4-(3,5-dichloropyridin-4-ylamino)-7-methoxy-8-(7-(4-methylpiperazin-1-yl)heptyloxy)quinolin-2(1H)-one], at PDE4B, the IC50 is below 1 µM. In the data set “Stability Protocol”, the “Stability, pH 7.4” value is listed as “+ (+ indicates ≧1 Year)”. Moreover, the solubility in “Solubility Protocol” was at least 1 mg/mL.

Take `COc1ccc2c(Nc3c(Cl)cncc3Cl)cc(=O)[nH]c2c1OCCCCCCN1CCOCC1` [Example 16, 4-(3,5-Dichloropyridin-4-ylamino)-7-methoxy-8-(6-morpholinohexyloxy)quinolin-2(1H)-one]: the 50% inhibitory concentration (IC50) on PDE4B was below 1 µM. Moreover, the “Stability, pH 7.4” value in the data set “Stability Protocol” is “+ (+ indicates ≧1 Year)”. The same compound yielded a solubility in “Solubility Protocol” of at least 1 mg/mL.

`COc1ccc2c(Nc3c(Cl)cncc3Cl)cc(=O)[nH]c2c1OCCCCCCCCN1CCN(C)CC1` [Example 21, 4-(3,5-dichloropyridin-4-ylamino)-7-methoxy-8-(8-(4-methylpiperazin-1-yl)octyloxy)quinolin-2(1H)-one]: the half-maximal inhibitory concentration (IC50) on PDE4B was below 1 µM. Also, the “Stability, pH 7.4” value in “Stability Protocol” is listed as “+ (+ indicates ≧1 Year)”. The same compound returned a solubility in the data set “Solubility Protocol” of at least 1 mg/mL.

Values taken from patent US8138205B2, “Heteroarylalkoxy-substituted quinolone inhibitors of PDE4” (Kalypsys, Inc., priority 2006, dated 2012).
